According to ChEMBL document CHEMBL4665781, “Metabolomic Comparison and Assessment of Co-cultivation and a Heat-Killed Inducer Strategy in Activation of Cryptic Biosynthetic Pathways” (J Nat Prod, 2020):
The source made the active and inactive calls. No cut-off for these calls is given here.

Key:
[1] = system: HCT-116; assay: Cytotoxicity against human HCT-116 cells assessed as reduction in cell viability up to 32 ug/ml after 24 hrs by alamar blue dye based assay; settings: hct-116, 24 h
[2] = Cytotoxicity against human HTB26 cells assessed as reduction in cell viability up to 32 ug/ml after 24 hrs by alamar blue dye based assay; settings: htb26, 24 h
[3] = system: MCF7; assay: Cytotoxicity against human MCF7 cells assessed as reduction in cell viability up to 32 ug/ml after 24 hrs by alamar blue dye based assay; settings: mcf7, 24 h
[4] = system: Vero; assay: Cytotoxicity against African green monkey Vero cells assessed as reduction in cell viability up to 32 ug/ml after 24 hrs by alamar blue dye based assay; settings: chlorocebus sabaeus
[5] = system: Candida albicans; assay: Antimicrobial activity against Candida albicans ATCC 14035 after 22 hrs by CLSI protocol based microbroth dilution assay; assay type: functional, organism-based
[6] = system: Proteus vulgaris; assay: Antimicrobial activity against Proteus vulgaris ATCC 12454 after 22 hrs by CLSI protocol based microbroth dilution assay; assay type: functional, organism-based
[7] = system: Staphylococcus warneri; assay: Antimicrobial activity against Staphylococcus warneri ATCC 17917 after 22 hrs by CLSI protocol based microbroth dilution assay; assay type: functional, organism-based
[8] = system: Enterococcus faecium; assay: Antimicrobial activity against vancomycin-resistant Enterococcus faecium EF379 after 22 hrs by CLSI protocol based microbroth dilution assay; assay type: functional, organism-based
[9] = system: Staphylococcus aureus; assay: Antimicrobial activity against methicillin-resistant Staphylococcus aureus ATCC 33591 after 22 hrs by CLSI protocol based microbroth dilution assay; assay type: functional, organism-based
[10] = Cytotoxicity against human HTB26 cells assessed as reduction in cell viability after 24 hrs by alamar blue dye based assay; settings: HTB26, 24 h
[11] = system: MCF7; assay: Cytotoxicity against human MCF7 cells assessed as reduction in cell viability after 24 hrs by alamar blue dye based assay; settings: MCF7, 24 h

| SMILES | Activity [1] | Activity [2] | Activity [3] | Activity [4] | Activity [5] | Activity [6] | Activity [7] | Activity [8] | Activity [9] | IC50 [10] | IC50 [11] |
| --- | --- | --- | --- | --- | --- | --- | --- | --- | --- | --- | --- |
| COc1cccc(C(=O)NC(N)=O)c1O | Non-Toxic | Non-Toxic | Non-Toxic | Non-Toxic | inactive | inactive | inactive | inactive | inactive | – | – |
| CCCCCCCC1=C(C)C(=O)C(=O)c2c1[nH]c1ccccc21 | – | – | – | – | inactive | inactive | inactive | inactive | inactive | 3.67 µM | 3.07 µM |
